Where “and” joins values, the source holds several entries; their conditions need not be identical. Equal values may be shown once. Entries after “also recorded” stand apart in the source; their conditions may differ.
Key:
Type in all cases: cell-based
H-9 cells = test: Cytoxicity on H-9 cells (drug inhibition, cell count); conditions: for H-9 Mean (drug inhibition): Table 4 summary; for % Inhibition Mean / Cells (×10^4) Mean / % Inhibition / Cells (×10^4): Exp. Dec. 05 to Dec. 09, 2005; for % Inhibition / Cells (×10^4): single replicates
Source text: (§1) The purified and identified analogs were subjected to in vitro biological testing. […] These three congeners were further evaluated in H9 and PC3 cells. AZT was employed as a positive control in all of these experiments.

MCF-7 cells = test: Cytoxicity on MCF-7 cells (drug inhibition, cell count); parameters: Drug Inhibition on MCF-7 Cells / MCF-7 Mean (drug inhibition) / Drug inhibition on MCF-7 Cells Mean: unit not given here; conditions: MCF-7 cells; for Drug Inhibition on MCF-7 Cells: Table 8 summary
Source text: as §1

PC-3 cells = test: Cytoxicity on PC-3 cells (drug inhibition, cell count); conditions: for Drug Inhibition on PC-3 cells: Table 7; for % Inhibition Mean / Cells (×10^4) Mean / % Inhibition / Cells (×10^4): Exp. Nov. 11 to Nov. 17, 2005; for % Inhibition / Cells (×10^4): single replicates
Source text: The purified and identified analogs were subjected to in vitro biological testing.

[1] = 1 μg/ml, mean, Exp. Nov. 14 to Nov. 18, 2005
[2] = 1 μg/ml, single replicates, Exp. Nov. 14 to Nov. 18, 2005
[3] = 5 μg/ml, mean, Exp. Nov. 14 to Nov. 18, 2005
[4] = 5 μg/ml, single replicates, Exp. Nov. 14 to Nov. 18, 2005
[5] = 10 μg/ml, mean, Exp. Nov. 14 to Nov. 18, 2005
[6] = 10 μg/ml, single replicates, Exp. Nov. 14 to Nov. 18, 2005
[7] = 50 μg/ml, mean, Exp. Nov. 14 to Nov. 18, 2005
[8] = 50 μg/ml, single replicates, Exp. Nov. 14 to Nov. 18, 2005

SMILES: COc1ccc(C=CC(=O)c2cc(Cl)cc(Cl)c2O)cc1OC [CHCl 2M]
- H-9 Mean (drug inhibition) (H-9 cells; 1 μg/ml): 15.92
- % Inhibition Mean (H-9 cells; 1 μg/ml): 15.92%
- Cells (×10^4) Mean (H-9 cells; 1 μg/ml): 42.25 ×10^4
- % Inhibition (H-9 cells; 1 μg/ml): 16.42% and 15.92% and 15.42%
- Cells (×10^4) (H-9 cells; 1 μg/ml): 42.0 ×10^4 and 42.3 ×10^4 and 42.6 ×10^4
- H-9 Mean (drug inhibition) (H-9 cells; 5 μg/ml): 52.24
- % Inhibition Mean (H-9 cells; 5 μg/ml): 52.24%
- Cells (×10^4) Mean (H-9 cells; 5 μg/ml): 24.00 ×10^4
- % Inhibition (H-9 cells; 5 μg/ml): 52.24% and 52.74% and 51.74%
- Cells (×10^4) (H-9 cells; 5 μg/ml): 24.0 ×10^4 and 23.8 ×10^4 and 24.3 ×10^4
- H-9 Mean (drug inhibition) (H-9 cells; 10 μg/ml): 74.3
- % Inhibition Mean (H-9 cells; 10 μg/ml): 74.30%
- Cells (×10^4) Mean (H-9 cells; 10 μg/ml): 12.92 ×10^4
- % Inhibition (H-9 cells; 10 μg/ml): 74.13% and 77.11% and 71.64%
- Cells (×10^4) (H-9 cells; 10 μg/ml): 13.0 ×10^4 and 11.5 ×10^4 and 14.3 ×10^4
- H-9 Mean (drug inhibition) (H-9 cells; 50 μg/ml): 91.04
- % Inhibition Mean (H-9 cells; 50 μg/ml): 91.04%
- Cells (×10^4) Mean (H-9 cells; 50 μg/ml): 4.50 ×10^4
- % Inhibition (H-9 cells; 50 μg/ml): 92.04% and 91.04% and 90.05%
- Cells (×10^4) (H-9 cells; 50 μg/ml): 4.0 ×10^4 and 4.5 ×10^4 and 5.0 ×10^4
- inhibitory activity compared to AZT (H-9 cells; same conditions as AZT): much superior inhibitory activities; also recorded: as good or somewhat better
- response to MCF-7 cells in the different drug concentrations (MCF-7 cells): good activities
- Drug Inhibition on MCF-7 Cells (MCF-7 cells; 1 μg/ml): 14.55
- % Inhibition Mean (MCF-7 cells; [1]): 14.55%
- Cells (×10^4) Mean (MCF-7 cells; [1]): 49.42 ×10^4
- % Inhibition (MCF-7 cells; [2]): 13.98% and 16.14% and 13.54%
- Cells (×10^4) (MCF-7 cells; [2]): 49.8 ×10^4 and 48.5 ×10^4 and 50.0 ×10^4
- Drug Inhibition on MCF-7 Cells (MCF-7 cells; 5 μg/ml): 44.09
- % Inhibition Mean (MCF-7 cells; [3]): 44.09%
- Cells (×10^4) Mean (MCF-7 cells; [3]): 32.33 ×10^4
- % Inhibition (MCF-7 cells; [4]): 44.67% and 45.53% and 42.07%
- Cells (×10^4) (MCF-7 cells; [4]): 32.0 ×10^4 and 31.5 ×10^4 and 33.5 ×10^4
- Drug Inhibition on MCF-7 Cells (MCF-7 cells; 10 μg/ml): 81.99
- % Inhibition Mean (MCF-7 cells; [5]): 81.99%
- Cells (×10^4) Mean (MCF-7 cells; [5]): 10.42 ×10^4
- % Inhibition (MCF-7 cells; [6]): 82.71% and 81.41% and 81.84%
- Cells (×10^4) (MCF-7 cells; [6]): 10.0 ×10^4 and 10.8 ×10^4 and 10.5 ×10^4
- Drug Inhibition on MCF-7 Cells (MCF-7 cells; 50 μg/ml): 98.70
- % Inhibition Mean (MCF-7 cells; [7]): 98.70%
- Cells (×10^4) Mean (MCF-7 cells; [7]): 0.75 ×10^4
- % Inhibition (MCF-7 cells; [8]): 98.27% and 99.14% and 98.70%
- Cells (×10^4) (MCF-7 cells; [8]): 1.0 ×10^4 and 0.5 ×10^4 and 0.8 ×10^4
- inhibitory activity compared to AZT (MCF-7 cells; same conditions as AZT): much superior inhibitory activities; also recorded: as good or somewhat better
- Drug Inhibition on PC-3 cells (PC-3 cells; 1 μg/ml): 42.4
- % Inhibition Mean (PC-3 cells; 1 μg/ml): 25.09%
- Cells (×10^4) Mean (PC-3 cells; 1 μg/ml): 73.42 ×10^4
- % Inhibition (PC-3 cells; 1 μg/ml): 24.23% and 24.49% and 26.53%
- Cells (×10^4) (PC-3 cells; 1 μg/ml): 74.3 ×10^4 and 74.0 ×10^4 and 72.0 ×10^4
- Drug Inhibition on PC-3 cells (PC-3 cells; 5 μg/ml): 73.76
- % Inhibition Mean (PC-3 cells; 5 μg/ml): 28.57%
- Cells (×10^4) Mean (PC-3 cells; 5 μg/ml): 70.00 ×10^4
- % Inhibition (PC-3 cells; 5 μg/ml): 29.59% and 29.08% and 27.04%
- Cells (×10^4) (PC-3 cells; 5 μg/ml): 69.0 ×10^4 and 69.5 ×10^4 and 71.5 ×10^4
- Drug Inhibition on PC-3 cells (PC-3 cells; 10 μg/ml): 87.02
- % Inhibition Mean (PC-3 cells; 10 μg/ml): 29.00%
- Cells (×10^4) Mean (PC-3 cells; 10 μg/ml): 69.58 ×10^4
- % Inhibition (PC-3 cells; 10 μg/ml): 30.61% and 28.57% and 27.81%
- Drug Inhibition on PC-3 cells (PC-3 cells; 50 μg/ml): 96.96
- % Inhibition Mean (PC-3 cells; 50 μg/ml): 36.65%
- Cells (×10^4) Mean (PC-3 cells; 50 μg/ml): 62.08 ×10^4
- % Inhibition (PC-3 cells; 50 μg/ml): 31.88% and 33.16% and 45.41%
- Cells (×10^4) (PC-3 cells; 50 μg/ml): 67.3 ×10^4 and 65.5 ×10^4 and 53.5 ×10^4
- inhibitory activity compared to AZT (PC-3 cells; same conditions as AZT): much superior inhibitory activities; also recorded: as good or somewhat better

SMILES: COc1cc(C=CC(=O)c2cc(Cl)cc(Cl)c2O)cc(OC)c1OC [CHCl 3M]
- Cells (×10^4) Mean (MCF-7 cells; drug 1 μg/ml, mean of replicates): 53.17 ×10^4
- % Inhibition Mean (MCF-7 cells; drug 1 μg/ml, mean of replicates, vs 2% DMSO): −4.42%
- Cells (×10^4) (MCF-7 cells; drug 1 μg/ml, single replicate count): 54.0 ×10^4 and 54.3 ×10^4 and 51.3 ×10^4
- % Inhibition (MCF-7 cells; drug 1 μg/ml, single replicate, vs 2% DMSO): −6.06% and −6.55% and −0.65%
- Cells (×10^4) Mean (MCF-7 cells; drug 5 μg/ml, mean of replicates): 52.75 ×10^4
- % Inhibition Mean (MCF-7 cells; drug 5 μg/ml, mean of replicates, vs 2% DMSO): −3.6%
- Cells (×10^4) (MCF-7 cells; drug 5 μg/ml, single replicate count): 53.8 ×10^4 and 51.5 ×10^4 and 50.0 ×10^4
- % Inhibition (MCF-7 cells; drug 5 μg/ml, single replicate, vs 2% DMSO): −5.56% and −1.15% and −4.09%
- Cells (×10^4) Mean (MCF-7 cells; drug 10 μg/ml, mean of replicates): 43.75 ×10^4
- % Inhibition Mean (MCF-7 cells; drug 10 μg/ml, mean of replicates, vs 2% DMSO): 14.08%
- Cells (×10^4) (MCF-7 cells; drug 10 μg/ml, single replicate count): 42.5 ×10^4 and 43.3 ×10^4 and 45.5 ×10^4
- % Inhibition (MCF-7 cells; drug 10 μg/ml, single replicate, vs 2% DMSO): 16.53% and 15.06% and 10.64%
- Cells (×10^4) Mean (MCF-7 cells; drug 50 μg/ml, mean of replicates): 31.50 ×10^4
- % Inhibition Mean (MCF-7 cells; drug 50 μg/ml, mean of replicates, vs 2% DMSO): 38.13%
- Cells (×10^4) (MCF-7 cells; drug 50 μg/ml, single replicate count): 32.0 ×10^4 and 32.8 ×10^4 and 29.8 ×10^4
- % Inhibition (MCF-7 cells; drug 50 μg/ml, single replicate, vs 2% DMSO): 37.15% and 35.68% and 41.57%

From US8314143B2, “Synthetic flavonoids and pharmaceutical compositions and therapeutic methods of treatment of HIV infection and other pathologies” (Florida A&M University, priority 2006, dated 2012)
